Data as given in paper PMC9237828, “Chemically Tuning Resveratrol for the Effective Killing of Gram-Positive Pathogens” (Journal of Natural Products, 2022).
In brackets after ≈: the same amount, converted by molar mass. Like-named read-outs stand apart in the source and are kept apart here.

Experiments:
in vitro = details: human
S.aureus LMG15975 = test: microbe, parasite or virus in culture; type: cell-based, Staphylococcus aureus; details: for MIC: Staphylococcus aureus, LMG15975, 20 h, read-out: Minimal Inhibition Concentration (MIC) S.aureus LMG15975
C. botulinum CECT551 = test: microbe, parasite or virus in culture; type: cell-based; details: for MIC: Clostridium botulinum, CECT551, 24 h, read-out: Minimal Inhibition Concentration (MIC) C. botulinum CECT551
C. beijerinckii B504 = test: MIC test, anaerobes; type: cell-based
Description: (§1) The resveratrol derivatives were serially diluted in cMHB (BD Difco) in 96-well microplates. Plates were then inoculated with the indicator bacteria at a final concentration of 5 × 10^5 CFU/mL and incubated at 37 °C for 20 h. In the case of the anaerobic bacteria (Clostridium and Clostridioides), the test was performed following the recommendation of CLSI for anaerobes[77] but using RCM medium instead of cMHB. The cultures were cultivated inside an anaerobic chamber at 37 °C for 24 h. All the tests were performed in triplicate.

C. ihumii AP5 = test: MIC test, anaerobes; type: cell-based
Description: as §1

[1] = tested on: panel of aerobic and anaerobic Gram-positive bacteria; test: organism not typed; type: cell-based
E. faecalis LMG16216 = test: microbe, parasite or virus in culture; type: cell-based, Enterococcus faecalis; details: for MIC: Enterococcus faecalis, LMG16216, 20 h, read-out: Minimal Inhibition Concentration (MIC) E. faecalis LMG16216
B. cereus ATCC10987 [2] = test: microbe, parasite or virus in culture; type: cell-based, Bacillus cereus; details: for MIC: Bacillus cereus, ATCC10987, 20 h, read-out: Minimal Inhibition Concentration (MIC) B. cereus ATCC10987
E. faecium LMG11423 = test: microbe, parasite or virus in culture; type: cell-based; details: for MIC: Enterococcus faecium, LMG11423, 20 h, read-out: Minimal Inhibition Concentration (MIC) E. faecium LMG11423
C. tetani CECT4629 = test: microbe, parasite or virus in culture; type: cell-based; details: for MIC: Clostridium tetani, CECT4629, 24 h, read-out: Minimal Inhibition Concentration (MIC) C. tetani CECT4629
E. faecalis V583 = test: microbe, parasite or virus in culture; type: cell-based, Enterococcus faecalis; details: for MIC: Enterococcus faecalis, V583, 20 h, read-out: Minimal Inhibition Concentration (MIC) E. faecalis V583
E. faecalis LMG08222 = test: microbe, parasite or virus in culture; type: cell-based, Enterococcus faecalis; details: for MIC: Enterococcus faecalis, LMG08222, 20 h, read-out: Minimal Inhibition Concentration (MIC) E. faecalis LMG08222
E. faecium LMG16003 = test: microbe, parasite or virus in culture; type: cell-based; details: for MIC: Enterococcus faecium, LMG16003, 20 h, read-out: Minimal Inhibition Concentration (MIC) E. faecium LMG16003
C. perfringens CECT376 = test: microbe, parasite or virus in culture; type: cell-based; details: for MIC: Clostridium perfringens, CECT376, 24 h, read-out: Minimal Inhibition Concentration (MIC) C. perfringens CECT376
B. cereus ATCC14579 = test: microbe, parasite or virus in culture; type: cell-based, Bacillus cereus; details: for MIC: Bacillus cereus, ATCC14579, 20 h, read-out: Minimal Inhibition Concentration (MIC) B. cereus ATCC14579
S.aureus LMG10147 = test: microbe, parasite or virus in culture; type: cell-based, Staphylococcus aureus; details: for MIC: Staphylococcus aureus, LMG10147, 20 h, read-out: Minimal Inhibition Concentration (MIC) S.aureus LMG10147
C. difficile CECT531 = test: microbe, parasite or virus in culture; type: cell-based, Clostridioides difficile; details: for MIC: Clostridioides difficile, CECT531, 24 h, read-out: Minimal Inhibition Concentration (MIC) C. difficile CECT531
S.aureus LMG8224 = test: microbe, parasite or virus in culture; type: cell-based, Staphylococcus aureus; details: for MIC: Staphylococcus aureus, LMG8224, 20 h, read-out: Minimal Inhibition Concentration (MIC) S.aureus LMG8224
B. cereus ATCC10987 [3] = test: Intracellular ATP level quantification (BacTiter-Glo); details: 32 μM of the compounds (100 μM for CCCP), 30, 60, and 120 min, 37 °C
E. coli LMG8224 = test: Outer membrane permeabilization test (MIC with or without L-11 peptide); details: for MIC: Escherichia coli, LMG8224, read-out: MIC (μM) L-11 + 0 μM; for MIC (μM) L-11 + 4 μM: presence of 4 μM L-11 outer-membrane-perturbing peptide
[4] = Clostridium beijerinckii, B504, 24 h; read-out: Minimal Inhibition Concentration (MIC) C. beijerinckii B504
[5] = 24 h; read-out: Minimal Inhibition Concentration (MIC) C. ihumii AP5
[6] = Table 1, 128 to 2 μM, RCM medium, anaerobic, 24 h
[7] = Table 1; 128 to 2 μM, RCM medium, anaerobic, 24 h

| Molecule | MIC (S.aureus LMG15975) | MIC (C. botulinum CECT551) | MIC (C. beijerinckii B504; [4]) | MIC (C. ihumii AP5; [5]) | MIC (E. faecalis LMG16216) | MIC (B. cereus ATCC10987 [2]) | MIC (E. faecium LMG11423) | MIC (C. tetani CECT4629) | MIC (E. faecalis V583) | MIC (E. faecalis LMG08222) | MIC (E. faecium LMG16003) | MIC (C. perfringens CECT376) | MIC (B. cereus ATCC14579) | MIC (S.aureus LMG10147) | MIC (C. difficile CECT531) | MIC (S.aureus LMG8224) | MIC (E. coli LMG8224) | MIC (μM) L-11 + 4 μM (E. coli LMG8224) | other results |
| --- | --- | --- | --- | --- | --- | --- | --- | --- | --- | --- | --- | --- | --- | --- | --- | --- | --- | --- | --- |
| CC[Si](CC)(CC)Oc1ccc(/C=C/c2cc(O)cc(O)c2)cc1 [compound 31] |  |  |  |  |  |  |  |  |  |  |  |  |  |  |  |  |  |  | IC50 (in vitro): 32.1 ± 0.9 µM |
| CCCCOc1ccc(/C=C/c2cc(OS(=O)(=O)O)cc(OS(=O)(=O)O)c2)cc1 [compound 14, 4′-butyl-3,5-disulfate resveratrol] | 32 µM (≈ 14.2 µg/mL) | 21.3 ± 5.3 µM (≈ 9.47 µg/mL) | 16 µM (≈ 7.11 µg/mL) | 32 µM (≈ 14.2 µg/mL) | 16 µM (≈ 7.11 µg/mL) | 128 µM (≈ 56.9 µg/mL) | 32 µM (≈ 14.2 µg/mL) | 16 µM (≈ 7.11 µg/mL) | 64 µM (≈ 28.4 µg/mL) | 32 µM (≈ 14.2 µg/mL) | 64 µM (≈ 28.4 µg/mL) | 32 µM (≈ 14.2 µg/mL) | 128 µM (≈ 56.9 µg/mL) | 32 µM (≈ 14.2 µg/mL) | 32 µM (≈ 14.2 µg/mL) | 32 µM (≈ 14.2 µg/mL) |  |  | antibacterial activity against the Gram-positive panel [1]: active against all Gram-positive bacterial strains examined |
| 3-butyl resveratrol [compound 9] |  |  |  |  |  |  |  |  |  |  |  |  |  |  |  |  |  |  | Minimal Inhibition Concentration (MIC) S.aureus LMG15975 (S.aureus LMG15975): 32 ± 0 µM; Minimal Inhibition Concentration (MIC) C. botulinum CECT551 (C. botulinum CECT551; [6]): 32 ± 0 µM; Minimal Inhibition Concentration (MIC) C. beijerinckii B504 (C. beijerinckii B504; [7]): 26.6 ± 5.3 µM; Minimal Inhibition Concentration (MIC) C. ihumii AP5 (C. ihumii AP5; [7]): 64 ± 0 µM; Minimal Inhibition Concentration (MIC) E. faecalis LMG16216 (E. faecalis LMG16216): 128 ± 0 µM; Minimal Inhibition Concentration (MIC) B. cereus ATCC10987 (B. cereus ATCC10987 [2]): 32 ± 0 µM; Minimal Inhibition Concentration (MIC) E. faecium LMG11423 (E. faecium LMG11423): 64 ± 0 µM; Minimal Inhibition Concentration (MIC) C. tetani CECT4629 (C. tetani CECT4629; [6]): 16 ± 0 µM; Minimal Inhibition Concentration (MIC) E. faecalis V583 (E. faecalis V583): 128 ± 0 µM; Minimal Inhibition Concentration (MIC) E. faecalis LMG08222 (E. faecalis LMG08222): 128 ± 0 µM; Minimal Inhibition Concentration (MIC) E. faecium LMG16003 (E. faecium LMG16003): 128 ± 0 µM; Minimal Inhibition Concentration (MIC) C. perfringens CECT376 (C. perfringens CECT376): 64 ± 0 µM; Minimal Inhibition Concentration (MIC) B. cereus ATCC14579 (B. cereus ATCC14579): 32 ± 0 µM; Minimal Inhibition Concentration (MIC) S.aureus LMG10147 (S.aureus LMG10147): 64 ± 0 µM; Minimal Inhibition Concentration (MIC) C. difficile CECT531 (C. difficile CECT531): 64 ± 0 µM; Minimal Inhibition Concentration (MIC) S.aureus LMG8224 (S.aureus LMG8224): 64 ± 0 µM |
| N#CC(C#N)=NNc1cccc(Cl)c1 [CCCP, carbonyl cyanide m-chlorophenyl hydrazone] |  |  |  |  |  |  |  |  |  |  |  |  |  |  |  |  |  |  | intracellular ATP levels (B. cereus ATCC10987 [3]): a time reduction of these levels was observed |
| CC(C)[Si](Oc1cc(/C=C/c2ccc(OS(=O)(=O)O)cc2)cc(OS(=O)(=O)O)c1)(C(C)C)C(C)C [compound 35, 3,4′-Disulfate-5-triisopropylsilyl resveratrol] | 16 µM (≈ 8.72 µg/mL) | 64 µM (≈ 34.9 µg/mL) |  |  | 8 µM (≈ 4.36 µg/mL) | 16 µM (≈ 8.72 µg/mL) | 16 µM (≈ 8.72 µg/mL) | 64 µM (≈ 34.9 µg/mL) | 16 µM (≈ 8.72 µg/mL) | 13.3 ± 2.6 µM (≈ 7.24 µg/mL) | 13.3 ± 2.6 µM (≈ 7.24 µg/mL) | 64 µM (≈ 34.9 µg/mL) | 21.3 ± 5.3 µM (≈ 11.6 µg/mL) | 21.3 ± 5.3 µM (≈ 11.6 µg/mL) | 32 µM (≈ 17.4 µg/mL) | 13.3 ± 2.6 µM (≈ 7.24 µg/mL) | > 128 µM | 21.6 ± 5.3 µM | MIC (C. beijerinckii B504; Clostridium beijerinckii, B504, 24 h, read-out: Minimal Inhibition Concentration (MIC) C. beijerinckii B504): 64 µM (≈ 34.9 µg/mL); MIC (C. ihumii AP5; 24 h, read-out: Minimal Inhibition Concentration (MIC) C. ihumii AP5): 64 µM (≈ 34.9 µg/mL) |
| COc1cc(/C=C/c2ccc(O[C@@H]3O[C@H](C(=O)O)[C@@H](O)[C@H](O)[C@H]3O)cc2)cc(OC)c1 [compound 30, PTER glucuronate] | 32 µM (≈ 13.8 µg/mL) | 4 µM (≈ 1.73 µg/mL) | 10.7 ± 2.6 µM (≈ 4.63 µg/mL) | 8 µM (≈ 3.46 µg/mL) | 128 µM (≈ 55.4 µg/mL) | 16 µM (≈ 6.92 µg/mL) |  | 4 µM (≈ 1.73 µg/mL) | 128 µM (≈ 55.4 µg/mL) | 64 µM (≈ 27.7 µg/mL) |  | 5.3 ± 1.3 µM (≈ 2.29 µg/mL) | 13.3 ± 2.6 µM (≈ 5.75 µg/mL) | 32 µM (≈ 13.8 µg/mL) | 13.3 ± 2.6 µM (≈ 5.75 µg/mL) | 32 µM (≈ 13.8 µg/mL) | > 128 µM | 16 ± 0 µM | MIC [1]: < 16 µM |
